The source of these data is ChEMBL document CHEMBL5370537, “Aporphines: A privileged scaffold in CNS drug discovery” (Eur J Med Chem, 2023).

The target in test [1] is T1, 5-hydroxytryptamine receptor 2C (Homo sapiens, UniProt P28335).
T1 sequence (P28335 whole entry): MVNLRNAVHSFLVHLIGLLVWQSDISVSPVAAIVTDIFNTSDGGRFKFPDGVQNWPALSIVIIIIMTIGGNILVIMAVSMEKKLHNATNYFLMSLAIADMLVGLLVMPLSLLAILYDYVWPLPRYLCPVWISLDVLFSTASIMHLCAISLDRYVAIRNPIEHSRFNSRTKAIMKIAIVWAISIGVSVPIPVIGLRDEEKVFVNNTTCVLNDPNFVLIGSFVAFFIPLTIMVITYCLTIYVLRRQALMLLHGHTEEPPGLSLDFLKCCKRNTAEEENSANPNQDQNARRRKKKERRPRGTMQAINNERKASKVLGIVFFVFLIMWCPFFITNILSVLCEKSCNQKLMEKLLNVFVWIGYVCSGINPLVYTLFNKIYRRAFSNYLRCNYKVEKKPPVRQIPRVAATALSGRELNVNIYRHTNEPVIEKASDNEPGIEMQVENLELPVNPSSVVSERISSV
Kind of test: Agonist activity at 5-HT2C (unknown origin). The format is functional.

Test [2] concerns the target T2, 5-hydroxytryptamine receptor 2C (Homo sapiens) (UniProt P28335).
T2 sequence (whole entry): T1 sequence (P28335 whole entry)
Briefly: Agonist activity at 5-HT2C (unknown origin) relative to control. The format is functional. Particulars: filed as agonist.

For test [3], the target named is T3, 5-hydroxytryptamine receptor 2B (Homo sapiens, UniProt P41595). Briefly: Agonist activity at 5-HT2B (unknown origin). The class given is functional.
T3 sequence (P41595 whole entry): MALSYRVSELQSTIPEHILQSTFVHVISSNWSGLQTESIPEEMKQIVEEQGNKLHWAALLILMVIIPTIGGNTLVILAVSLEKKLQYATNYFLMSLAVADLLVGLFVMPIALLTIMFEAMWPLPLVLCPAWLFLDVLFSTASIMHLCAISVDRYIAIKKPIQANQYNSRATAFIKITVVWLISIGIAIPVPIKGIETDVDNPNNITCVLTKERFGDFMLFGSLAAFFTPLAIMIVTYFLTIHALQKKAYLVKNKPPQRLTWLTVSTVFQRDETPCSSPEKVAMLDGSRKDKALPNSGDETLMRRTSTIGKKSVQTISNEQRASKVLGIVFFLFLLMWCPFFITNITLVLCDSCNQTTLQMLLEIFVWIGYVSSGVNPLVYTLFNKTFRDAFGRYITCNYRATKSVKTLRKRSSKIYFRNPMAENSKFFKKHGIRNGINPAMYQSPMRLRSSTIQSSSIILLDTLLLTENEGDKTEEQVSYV
In test [4] the target is T4, 5-hydroxytryptamine receptor 2A (Homo sapiens, UniProt P28223). Briefly: Agonist activity at 5-HT2A (unknown origin). The format is functional.
T4 sequence (P28223 whole entry): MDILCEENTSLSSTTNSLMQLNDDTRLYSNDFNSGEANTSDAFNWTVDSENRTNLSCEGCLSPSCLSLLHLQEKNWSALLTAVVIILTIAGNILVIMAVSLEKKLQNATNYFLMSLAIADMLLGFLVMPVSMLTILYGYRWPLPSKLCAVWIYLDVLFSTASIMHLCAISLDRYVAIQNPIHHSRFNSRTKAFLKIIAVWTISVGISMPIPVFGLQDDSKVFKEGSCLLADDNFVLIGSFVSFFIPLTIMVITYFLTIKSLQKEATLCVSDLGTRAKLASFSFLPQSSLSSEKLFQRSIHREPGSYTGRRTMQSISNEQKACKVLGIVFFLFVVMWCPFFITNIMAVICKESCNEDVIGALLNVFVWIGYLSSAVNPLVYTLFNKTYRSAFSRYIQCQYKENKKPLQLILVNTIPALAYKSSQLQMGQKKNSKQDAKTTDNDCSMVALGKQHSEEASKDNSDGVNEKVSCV
The target in test [5] is T3, 5-hydroxytryptamine receptor 2B. Kind of test: Agonist activity at 5-HT2B (unknown origin) relative to control. The class given is functional. Particulars: filed as agonist.
The target of test [6] is T4, 5-hydroxytryptamine receptor 2A. Kind of test: Agonist activity at 5-HT2A (unknown origin) relative to control. The class given is functional. As to conditions: filed as agonist.
Test [7] can be described thus: Selectivity index, ratio of EC50 for agonist activity at 5-HT2C (unknown origin) to EC50 for agonist activity at 5-HT2B (unknown origin).
A short description of test [8]: Selectivity index, ratio of EC50 for agonist activity at 5-HT2C (unknown origin) to EC50 for agonist activity at 5-HT2A (unknown origin).
Test [9] in a line: Inhibition of neuronal excitability in mouse Primary neocortical neuron assessed as reduction in SCO amplitude measured after 45 mins by FLIPR assay. The class given is functional, cell-based. Particulars: 0.75 h.
Test [10] is described as follows: Inhibition of neuronal excitability in mouse Primary neocortical neuron assessed as reduction in SCO frequency measured after 45 mins by FLIPR assay. Particulars: 0.75 h. The class given is functional, cell-based.
Test [11] has as its target 5-hydroxytryptamine receptor 7 (Rattus norvegicus, UniProt P32305). Kind of test: Displacement of [3H]5-HT from rat 5-HT7 assessed as inhibition constant. (In general: Displacement assays read how much labelled ligand stays bound in the presence of the test substance.)
Test [12] has as its target T5, 5-hydroxytryptamine receptor 1A (Homo sapiens, UniProt P08908).
T5 sequence (P08908 whole entry): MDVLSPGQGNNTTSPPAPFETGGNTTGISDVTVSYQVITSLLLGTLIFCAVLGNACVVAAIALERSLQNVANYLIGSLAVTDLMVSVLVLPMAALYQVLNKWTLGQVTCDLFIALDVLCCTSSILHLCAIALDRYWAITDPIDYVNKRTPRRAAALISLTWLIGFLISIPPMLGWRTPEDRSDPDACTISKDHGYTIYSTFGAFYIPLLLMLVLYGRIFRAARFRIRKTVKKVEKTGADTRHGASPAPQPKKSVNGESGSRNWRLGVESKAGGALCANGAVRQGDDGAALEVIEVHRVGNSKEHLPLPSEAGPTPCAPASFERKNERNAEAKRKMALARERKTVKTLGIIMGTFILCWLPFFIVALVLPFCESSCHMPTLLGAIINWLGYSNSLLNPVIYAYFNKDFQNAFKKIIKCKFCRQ
Kind of test: Displacement of [3H]8-OH-DPAT from human 5-HT1A assessed as inhibition constant.

The target in test [13] is T1, 5-hydroxytryptamine receptor 2C. Briefly: Agonist activity at recombinant human 5-HT2C stably expressed in human T-REx-293 cells measured after 60 mins by FLIPR assay. The class given is functional, cell-based.
Test [14] concerns the target T2, 5-hydroxytryptamine receptor 2C (Homo sapiens). Briefly: Agonist activity at recombinant human 5-HT2C stably expressed in human T-REx-293 cells measured after 60 mins by FLIPR assay relative to control. The format is functional, cell-based. Particulars: filed as agonist.

As a reminder, the EC50 is the concentration needed to bring the measured effect to its halfway point. For orientation: Emax means the greatest response seen or fitted, relative to the assay's reference. In general, IC50 refers to the concentration that inhibits the measured activity by half. What is called Ki is a dissociation constant, usually derived from enzyme kinetics or from competition with a known ligand.

Sequence of 5-hydroxytryptamine receptor 7 (P32305 whole entry): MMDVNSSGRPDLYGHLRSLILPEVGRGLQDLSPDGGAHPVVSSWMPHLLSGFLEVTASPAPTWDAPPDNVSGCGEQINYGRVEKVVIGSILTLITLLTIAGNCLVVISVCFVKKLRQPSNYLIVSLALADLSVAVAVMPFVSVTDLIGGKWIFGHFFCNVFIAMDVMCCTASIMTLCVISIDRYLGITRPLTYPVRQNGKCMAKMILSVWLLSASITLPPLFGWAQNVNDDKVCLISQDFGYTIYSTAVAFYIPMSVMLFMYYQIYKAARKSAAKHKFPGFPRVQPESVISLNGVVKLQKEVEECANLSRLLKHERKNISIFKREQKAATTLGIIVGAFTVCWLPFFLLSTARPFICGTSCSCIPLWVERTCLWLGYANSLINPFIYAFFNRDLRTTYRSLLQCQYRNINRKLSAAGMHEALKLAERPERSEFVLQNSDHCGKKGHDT

`Oc1cc2c3c(c1Cl)-c1ccccc1CC3NCC2` (centres undefined): the concentration for a half-maximal effect (EC50) worked out at 23.6 nM in test [1], 278 nM in test [3] and 596 nM in test [4]. In addition, the maximal response (Emax) was determined as 102% in [2], 63.5% in [5] and 44.9% in test [6]. For the same molecule, the Ratio EC50 in [7] is 12; in [8] it was 25.
For the molecule `COc1ccc2c(c1O)-c1c3c(cc4c1[C@H](C2)N(C)CC4)OCO3` [(S)-BULBOCAPNINE], the half-inhibitory concentration (IC50) in test [9] was determined as 12.9 µM; in [10], 11.6 µM.
Turning to `CN1CCc2ccc3c4c2[C@H]1Cc1cccc(c1-4)[C@]3(C)O`, the inhibition constant Ki in [11] amounted to 6.9 nM; in [12], 61.5 nM.
`COc1ccc2c3c1-c1ccccc1CC3NCC2` (centres undefined): the half-maximal effective concentration (EC50) in test [13] worked out at 103 nM. Besides, the maximum response (Emax) in test [14] stood at 96%.
